Source: paper PMC10133546, “Simultaneous determination of multiple components in rat plasma by UHPLC-sMRM for pharmacokinetic studies after oral administration of Qingjin Yiqi Granules” (Frontiers in Pharmacology, 2023)
Where two headings read alike, the source gives them in different places.

How the values were obtained:
[1] = Pharmacokinetic study in rat plasma after oral administration of QJYQ (UHPLC-sMRM); type: in vivo, Sprague-Dawley rats; details: for AUC(0-inf): read-out: AUC(0-∞); for MRT inf: read-out: MRT (0-∞); for MRT last: read-out: MRT(0-t)
[2] = Stability of analytes in rat plasma (auto-sampler, freeze-thaw, room temperature, long-term); details: for Autosampler for 24 h Accuracy (%): autosampler 24 h; for Room temperature for 24 h Accuracy (%): room temperature 24 h; for Freeze thaw cycles Accuracy (%): three freeze-thaw cycles
Method: (§1) The stability of analytes in plasma was evaluated by analyzing 4 QC samples (n = 6). The stability was included auto-sampler stability (keeping the sample in auto-sampler for 24 h), three times of freeze-thaw cycles stability (freezing cycle at −80°C, thawing cycle at room temperature), room temperature stability (storing samples at room temperature for 24 h), long-term stability (storing samples at −80°C for 1 month). […] Accompanying curve was established when testing the sample, calculate and compare the ratio of the actual measured concentration to the theoretical concentration, expressed in accuracy and RSD.

[3] = Stability of the working solution (4°C for 1 month); type: physicochemical
Method: as §1

[4] = design: method as in Wang et al., 2008; Feng et al., 2017; details: alkaline and light and heat conditions; ref Wang et al., 2008; Feng et al., 2017; cited from earlier work
[5] = test system: Caco-2 cell; design: method as in Cai et al., 2016; details: compared with baicalin; ref Cai et al., 2016; cited from earlier work
[6] = male, Sprague-Dawley, rat, plasma, po, 3.15 g/kg, rat plasma, oral QJYQ 3.15 g/kg, n = 8, mean ± SD, read-out: Tmax
[7] = male, Sprague-Dawley, rat plasma, oral QJYQ 3.15 g/kg, MRT type not specified, read-out: MRT
[8] = male, Sprague-Dawley, rat plasma, oral QJYQ 3.15 g/kg, n = 8, mean ± SD
[9] = male, Sprague-Dawley, rat plasma, oral QJYQ 3.15 g/kg, n = 8, mean ± SD, read-out: AUC(0-t)

O=C(O)[C@H]1O[C@@H](Oc2cc3oc(-c4ccccc4)cc(=O)c3c(O)c2O)[C@H](O)[C@@H](O)[C@@H]1O [baicalin]
Tmax [1, 6]: 7.22 ± 1.41 h | MRT [1, 7]: > 8 h | half-life [1, 8]: 3.09 ± 0.87 h | AUC(0-t) [1, 9]: 49300 ± 24900 ng·h/mL | AUC(0-inf) [1, 8]: 49700 ± 24900 ng·h/mL | Cmax ([1]; male, Sprague-Dawley, rat plasma, oral QJYQ 3.15 g/kg, n = 8, mean ± SD, read-out: Cmax): 4520 ± 3140 ng/mL | MRT inf [1, 8]: 8.62 ± 0.53 h | MRT last [1, 8]: 8.45 ± 0.58 h | Autosampler for 24 h Accuracy (%) ([2]; 15.6 ng/mL): 111.0% | Room temperature for 24 h Accuracy (%) ([2]; 15.6 ng/mL): 98.5% | −80°C for 1month Accuracy (%) ([2]; 15.6 ng/mL, −80°C 1 month): 98.9% | Autosampler for 24 h Accuracy (%) ([2]; 125 ng/mL): 113.0% | Room temperature for 24 h Accuracy (%) ([2]; 125 ng/mL): 104.0% | Freeze thaw cycles Accuracy (%) ([2]; 125 ng/mL): 89.3% | −80°C for 1month Accuracy (%) ([2]; 125 ng/mL, −80°C 1 month): 98.1% | Autosampler for 24 h Accuracy (%) ([2]; 1000 ng/mL): 94.2% | Room temperature for 24 h Accuracy (%) ([2]; 1000 ng/mL): 96.8% | Freeze thaw cycles Accuracy (%) ([2]; 1000 ng/mL): 89.7% | −80°C for 1month Accuracy (%) ([2]; 1000 ng/mL, −80°C 1 month): 91.4% | Autosampler for 24 h Accuracy (%) ([2]; 5000 ng/mL): 86.8% | Room temperature for 24 h Accuracy (%) ([2]; 5000 ng/mL): 89.0% | Freeze thaw cycles Accuracy (%) ([2]; 5000 ng/mL): 111.0% | −80°C for 1month Accuracy (%) ([2]; 5000 ng/mL, −80°C 1 month): 90.3% | Working solution Accuracy (%) ([3]; 15.6 ng/mL): 83.1% | Working solution Accuracy (%) ([3]; 125 ng/mL): 105.0% | Working solution Accuracy (%) ([3]; 1000 ng/mL): 93.9% | Working solution Accuracy (%) ([3]; 5000 ng/mL): 87.7% | stability [4]: not stable

COc1c(O[C@@H]2O[C@H](C(=O)O)[C@@H](O)[C@H](O)[C@H]2O)cc(O)c2c(=O)cc(-c3ccccc3)oc12 [wogonoside]
AUC(0-t) ([1]; rat, in vivo, po, 3.15 g/kg): 73080.32 ± 34091.07 ng·h/mL | AUC(0-∞) ([1]; rat, in vivo, po, 3.15 g/kg): 73104.07 ± 34093.59 ng·h/mL | Cmax ([1]; rat, in vivo, po, 3.15 g/kg): 5052.10 ± 3277.54 ng/mL | MRT ([1]; rat, in vivo, po, 3.15 g/kg): greater than 8 h | MRT (0-∞) ([1]; rat, in vivo, po, 3.15 g/kg): 8.40 ± 0.83 h | MRT(0-t) ([1]; rat, in vivo, po, 3.15 g/kg): 8.39 ± 0.83 h | T1/2 ([1]; rat, in vivo, po, 3.15 g/kg): 2.67 ± 0.24 h | Tmax ([1]; rat, in vivo, po, 3.15 g/kg): 5.89 ± 3.26 h | Autosampler for 24 h Accuracy (%) ([2]; 62.5 ng/mL): 89.7% | Room temperature for 24 h Accuracy (%) ([2]; 62.5 ng/mL): 83.2% | Freeze thaw cycles Accuracy (%) ([2]; 62.5 ng/mL): 84.2% | −80°C for 1month Accuracy (%) ([2]; 62.5 ng/mL, −80°C 1 month): 83.7% | Autosampler for 24 h Accuracy (%) ([2]; 500 ng/mL): 105.0% | Room temperature for 24 h Accuracy (%) ([2]; 500 ng/mL): 93.4% | −80°C for 1month Accuracy (%) ([2]; 500 ng/mL, −80°C 1 month): 113.0% | Autosampler for 24 h Accuracy (%) ([2]; 1000 ng/mL): 98.7% | Room temperature for 24 h Accuracy (%) ([2]; 1000 ng/mL): 85.6% | Freeze thaw cycles Accuracy (%) ([2]; 1000 ng/mL): 95.1% | −80°C for 1month Accuracy (%) ([2]; 1000 ng/mL, −80°C 1 month): 98.0% | Autosampler for 24 h Accuracy (%) ([2]; 5000 ng/mL): 97.5% | Room temperature for 24 h Accuracy (%) ([2]; 5000 ng/mL): 111.0% | Freeze thaw cycles Accuracy (%) ([2]; 5000 ng/mL): 90.9% | −80°C for 1month Accuracy (%) ([2]; 5000 ng/mL, −80°C 1 month): 89.1% | Working solution Accuracy (%) ([3]; 62.5 ng/mL): 91.0% | Working solution Accuracy (%) ([3]; 500 ng/mL): 113.0% | Working solution Accuracy (%) ([3]; 1000 ng/mL): 105.0% | Working solution Accuracy (%) ([3]; 5000 ng/mL): 108.0% | stability [4]: not stable | Caco-2 cell membrane permeability [5]: greater than baicalin

COc1c(O)cc(O)c2c(=O)cc(-c3ccccc3)oc12 [wogonin]
Tmax [1, 6]: 6.29 ± 0.76 h | MRT [1, 7]: > 8 h | half-life [1, 8]: 1.91 ± 0.09 h | AUC(0-t) [1, 9]: 288 ± 66.1 ng·h/mL | AUC(0-inf) [1, 8]: 288 ± 66.1 ng·h/mL | MRT inf [1, 8]: 8.27 ± 1.09 h | MRT last [1, 8]: 8.27 ± 1.09 h | Cmax ([1]; rat plasma, oral QJYQ 3.15 g/kg, n = 8, mean ± SD): 38.13 ± 10.55 ng/mL | Autosampler for 24 h Accuracy (%) ([2]; concentration 1.56 ng/mL): 82.8% | Autosampler for 24 h Accuracy (%) ([2]; concentration 12.5 ng/mL): 111.0% | Autosampler for 24 h Accuracy (%) ([2]; concentration 100 ng/mL): 102.0% | Autosampler for 24 h Accuracy (%) ([2]; concentration 500 ng/mL): 90.5% | Room temperature for 24 h Accuracy (%) ([2]; concentration 1.56 ng/mL): 98.0% | Room temperature for 24 h Accuracy (%) ([2]; concentration 12.5 ng/mL): 94.1% | Room temperature for 24 h Accuracy (%) ([2]; concentration 100 ng/mL): 89.8% | Room temperature for 24 h Accuracy (%) ([2]; concentration 500 ng/mL): 106.0% | Freeze thaw cycles Accuracy (%) ([2]; concentration 1.56 ng/mL): 86.4% | Freeze thaw cycles Accuracy (%) ([2]; concentration 12.5 ng/mL): 89.6% | Freeze thaw cycles Accuracy (%) ([2]; concentration 500 ng/mL): 91.8% | −80°C for 1month Accuracy (%) ([2]; −80°C for 1 month, concentration 1.56 ng/mL): 111.0% | −80°C for 1month Accuracy (%) ([2]; −80°C for 1 month, concentration 12.5 ng/mL): 85.1% | −80°C for 1month Accuracy (%) ([2]; −80°C for 1 month, concentration 100 ng/mL): 96.0% | −80°C for 1month Accuracy (%) ([2]; −80°C for 1 month, concentration 500 ng/mL): 87.4% | Working solution Accuracy (%) ([3]; concentration 1.56 ng/mL): 98.0% | Working solution Accuracy (%) ([3]; concentration 12.5 ng/mL): 98.9% | Working solution Accuracy (%) ([3]; concentration 100 ng/mL): 85.8% | Working solution Accuracy (%) ([3]; concentration 500 ng/mL): 100.0%
